Literature values in patent publication US11952328B2, “Selective ship inhibitors for treating disease” (THE RESEARCH FOUNDATION FOR THE STATE UNIVERSITY OF NEW YORK, priority 2018, dated 2024).

Molecular target: T1, SHIP1 (Homo sapiens, UniProt Q92835)
T1 sequence (Q92835 1-1189): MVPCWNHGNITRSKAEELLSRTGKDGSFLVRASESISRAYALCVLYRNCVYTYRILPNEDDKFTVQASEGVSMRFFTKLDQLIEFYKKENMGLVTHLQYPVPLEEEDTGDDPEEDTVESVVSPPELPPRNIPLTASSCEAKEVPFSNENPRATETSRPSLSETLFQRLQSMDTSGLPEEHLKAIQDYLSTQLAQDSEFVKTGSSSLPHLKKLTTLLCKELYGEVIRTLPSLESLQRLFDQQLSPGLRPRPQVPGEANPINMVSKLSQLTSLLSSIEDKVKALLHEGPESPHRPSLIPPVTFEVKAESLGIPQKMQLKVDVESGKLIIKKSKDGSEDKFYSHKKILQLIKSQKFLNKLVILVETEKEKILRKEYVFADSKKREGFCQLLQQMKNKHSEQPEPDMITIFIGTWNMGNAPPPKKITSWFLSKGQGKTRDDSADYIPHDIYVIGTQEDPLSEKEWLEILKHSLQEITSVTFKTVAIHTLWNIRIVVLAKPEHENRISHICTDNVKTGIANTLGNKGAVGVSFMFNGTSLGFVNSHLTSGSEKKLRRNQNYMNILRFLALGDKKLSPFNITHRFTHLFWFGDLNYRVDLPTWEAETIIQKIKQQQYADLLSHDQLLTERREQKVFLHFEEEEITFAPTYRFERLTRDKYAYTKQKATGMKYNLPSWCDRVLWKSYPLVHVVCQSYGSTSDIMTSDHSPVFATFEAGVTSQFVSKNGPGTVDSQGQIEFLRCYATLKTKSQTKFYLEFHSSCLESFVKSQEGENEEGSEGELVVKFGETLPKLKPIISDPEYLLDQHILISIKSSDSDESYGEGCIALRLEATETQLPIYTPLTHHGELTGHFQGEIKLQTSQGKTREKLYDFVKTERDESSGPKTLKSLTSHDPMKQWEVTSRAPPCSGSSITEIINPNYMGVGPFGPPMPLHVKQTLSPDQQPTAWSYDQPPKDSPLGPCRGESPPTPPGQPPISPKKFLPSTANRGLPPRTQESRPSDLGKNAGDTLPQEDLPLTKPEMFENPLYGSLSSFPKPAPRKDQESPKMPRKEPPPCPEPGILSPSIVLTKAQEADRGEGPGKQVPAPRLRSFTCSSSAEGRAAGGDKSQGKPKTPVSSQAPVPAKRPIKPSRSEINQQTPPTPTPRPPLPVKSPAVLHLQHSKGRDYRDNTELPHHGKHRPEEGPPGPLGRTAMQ
Conditions: Brooks et al. 2010; cited from earlier work

## CC(C)CCC[C@@H](C)[C@H]1CC[C@H]2[C@@H]3CCC4C[C@H](N)CC[C@]4(C)[C@H]3CC[C@]12C (stereo partly drawn) [Compound 3AC, 3-α-aminocholestane]
  selectivity for SHIP1: high degree of selectivity
